Reference: patent US7807439B2, “Staphylococcus aureus-specific detection media and identifying and/or counting method using same” (Biomerieux S.A., priority 2001, dated 2010)

Tests used:
[1] = system: S. aureus 0201035; test: Experiment 7: effect of maltose on α-glucosidase activity, weak inocula; type: cell-based, Staphylococcus aureus; parameters: key: 0 corresponds to a lack of activity; 0.1 corresponds to the presence of a trace of coloration; 0.5 corresponds to the presence of a very pale coloration; 1 corresponds to the presence of a clear coloration of weak intensity; 1.5 corresponds to the presence of a coloration which is intermediate between colorations 1 and 2; 2 corresponds to the presence of a true coloration of medium intensity; 2.5 corresponds to the presence of a coloration which is intermediate between colorations 2 and 3; 3 corresponds to the presence of an intense coloration; 3.5 corresponds to the presence of a coloration which is intermediate between colorations 3 and 4; 4 corresponds to the presence of a very intense coloration; conditions: strain 5
Method: (§1) The maltose is solubilized in water at a concentration of, for example, 100 g/l, and then a sufficient volume to obtain the final concentrations above is added to the three molten media. The Staphylococcal strains derived from the bioMérieux internal collection were seeded onto each one of the chromogenic media on their own (closely spaced perpendicular streaks over the entire surface of the dish) using a suspension at 0.5 MacFarland diluted to 1/30000. The dishes were incubated at 37° C. for 48 hours. The colonies formed were examined visually after 18, 24 and 48 hours of incubation and the intensity of coloration of the colonies was marked. The coloration was noted and the intensity of these colorations was marked. The reading scale is the same as that used above for tables 2 and 4.

[2] = system: S. aureus 7509008; test: as above; type: cell-based, Staphylococcus aureus; parameters: key: 0 corresponds to a lack of activity; 0.1 corresponds to the presence of a trace of coloration; 0.5 corresponds to the presence of a very pale coloration; 1 corresponds to the presence of a clear coloration of weak intensity; 1.5 corresponds to the presence of a coloration which is intermediate between colorations 1 and 2; 2 corresponds to the presence of a true coloration of medium intensity; 2.5 corresponds to the presence of a coloration which is intermediate between colorations 2 and 3; 3 corresponds to the presence of an intense coloration; 3.5 corresponds to the presence of a coloration which is intermediate between colorations 3 and 4; 4 corresponds to the presence of a very intense coloration; conditions: strain 1
Method: as §1

[3] = system: S. aureus 8311065; test: as above; type: cell-based, Staphylococcus aureus; parameters: key: 0 corresponds to a lack of activity; 0.1 corresponds to the presence of a trace of coloration; 0.5 corresponds to the presence of a very pale coloration; 1 corresponds to the presence of a clear coloration of weak intensity; 1.5 corresponds to the presence of a coloration which is intermediate between colorations 1 and 2; 2 corresponds to the presence of a true coloration of medium intensity; 2.5 corresponds to the presence of a coloration which is intermediate between colorations 2 and 3; 3 corresponds to the presence of an intense coloration; 3.5 corresponds to the presence of a coloration which is intermediate between colorations 3 and 4; 4 corresponds to the presence of a very intense coloration; conditions: strain 3
Method: as §1

[4] = system: S. aureus 8507276; test: as above; type: cell-based, Staphylococcus aureus; parameters: key: 0 corresponds to a lack of activity; 0.1 corresponds to the presence of a trace of coloration; 0.5 corresponds to the presence of a very pale coloration; 1 corresponds to the presence of a clear coloration of weak intensity; 1.5 corresponds to the presence of a coloration which is intermediate between colorations 1 and 2; 2 corresponds to the presence of a true coloration of medium intensity; 2.5 corresponds to the presence of a coloration which is intermediate between colorations 2 and 3; 3 corresponds to the presence of an intense coloration; 3.5 corresponds to the presence of a coloration which is intermediate between colorations 3 and 4; 4 corresponds to the presence of a very intense coloration; conditions: strain 2
Method: as §1

[5] = system: S. aureus 8507285; test: as above; type: cell-based, Staphylococcus aureus; parameters: key: 0 corresponds to a lack of activity; 0.1 corresponds to the presence of a trace of coloration; 0.5 corresponds to the presence of a very pale coloration; 1 corresponds to the presence of a clear coloration of weak intensity; 1.5 corresponds to the presence of a coloration which is intermediate between colorations 1 and 2; 2 corresponds to the presence of a true coloration of medium intensity; 2.5 corresponds to the presence of a coloration which is intermediate between colorations 2 and 3; 3 corresponds to the presence of an intense coloration; 3.5 corresponds to the presence of a coloration which is intermediate between colorations 3 and 4; 4 corresponds to the presence of a very intense coloration; conditions: strain 4
Method: as §1

[6] = system: Staphylococcus aureus; test: Experiment 7: effect of maltose, summary; type: cell-based; conditions: in particular critical strains (3, 4, 5 and 6)
Method: as §1, with “marked.” for “marked. The coloration was noted and the intensity of these colorations was marked. The reading scale is the same as that used above for tables 2 and 4.”

OC[C@H]1O[C@H](O[C@H]2[C@H](O)[C@@H](O)C(O)O[C@@H]2CO)[C@H](O)[C@@H](O)[C@@H]1O (mixture of isomers) [Maltose, maltose]
Intensity of coloration of the colonies ([1]; 18 h, Maltose 100 mg/l): 0.3
Intensity of coloration of the colonies ([1]; 18 h, Maltose 300 mg/l): 0.5
Intensity of coloration of the colonies ([1]; 18 h, Maltose 400 mg/l): 0.5
Intensity of coloration of the colonies ([1]; 24 h, Maltose 100 mg/l): 0.5
Intensity of coloration of the colonies ([1]; 24 h, Maltose 300 mg/l): 1
Intensity of coloration of the colonies ([1]; 24 h, Maltose 400 mg/l): 1
Intensity of coloration of the colonies ([1]; >40 h, Maltose 100 mg/l): 0.8
Intensity of coloration of the colonies ([1]; >40 h, Maltose 300 mg/l): 1
Intensity of coloration of the colonies ([1]; >40 h, Maltose 400 mg/l): 1.3
Intensity of coloration of the colonies ([2]; 18 h, Maltose 100 mg/l): 1.3
Intensity of coloration of the colonies ([2]; 18 h, Maltose 300 mg/l): 1.3
Intensity of coloration of the colonies ([2]; 18 h, Maltose 400 mg/l): 1.7
Intensity of coloration of the colonies ([2]; 24 h, Maltose 100 mg/l): 1.7
Intensity of coloration of the colonies ([2]; 24 h, Maltose 300 mg/l): 1.7
Intensity of coloration of the colonies ([2]; 24 h, Maltose 400 mg/l): 3
Intensity of coloration of the colonies ([2]; >40 h, Maltose 100 mg/l): 2
Intensity of coloration of the colonies ([2]; >40 h, Maltose 300 mg/l): 2
Intensity of coloration of the colonies ([2]; >40 h, Maltose 400 mg/l): 2.7
Intensity of coloration of the colonies ([3]; 18 h, Maltose 100 mg/l): 1.3
Intensity of coloration of the colonies ([3]; 18 h, Maltose 300 mg/l): 1.3
Intensity of coloration of the colonies ([3]; 18 h, Maltose 400 mg/l): 1.3
Intensity of coloration of the colonies ([3]; 24 h, Maltose 100 mg/l): 1.7
Intensity of coloration of the colonies ([3]; 24 h, Maltose 300 mg/l): 1.7
Intensity of coloration of the colonies ([3]; 24 h, Maltose 400 mg/l): 2
Intensity of coloration of the colonies ([3]; >40 h, Maltose 100 mg/l): 2.7
Intensity of coloration of the colonies ([3]; >40 h, Maltose 300 mg/l): 2.7
Intensity of coloration of the colonies ([3]; >40 h, Maltose 400 mg/l): 2.7
Intensity of coloration of the colonies ([4]; 18 h, Maltose 100 mg/l): 2
Intensity of coloration of the colonies ([4]; 18 h, Maltose 300 mg/l): 2
Intensity of coloration of the colonies ([4]; 18 h, Maltose 400 mg/l): 2
Intensity of coloration of the colonies ([4]; 24 h, Maltose 100 mg/l): 2.7
Intensity of coloration of the colonies ([4]; 24 h, Maltose 300 mg/l): 2.7
Intensity of coloration of the colonies ([4]; 24 h, Maltose 400 mg/l): 2.7
Intensity of coloration of the colonies ([4]; >40 h, Maltose 100 mg/l): 3
Intensity of coloration of the colonies ([4]; >40 h, Maltose 300 mg/l): 3
Intensity of coloration of the colonies ([4]; >40 h, Maltose 400 mg/l): 3
Intensity of coloration of the colonies ([5]; 18 h, Maltose 100 mg/l): 0
Intensity of coloration of the colonies ([5]; 18 h, Maltose 300 mg/l): 0
Intensity of coloration of the colonies ([5]; 18 h, Maltose 400 mg/l): 0
Intensity of coloration of the colonies ([5]; 24 h, Maltose 100 mg/l): 0.3
Intensity of coloration of the colonies ([5]; 24 h, Maltose 300 mg/l): 0.3
Intensity of coloration of the colonies ([5]; 24 h, Maltose 400 mg/l): 0.3
Intensity of coloration of the colonies ([5]; >40 h, Maltose 100 mg/l): 0.8
Intensity of coloration of the colonies ([5]; >40 h, Maltose 300 mg/l): 1
Intensity of coloration of the colonies ([5]; >40 h, Maltose 400 mg/l): 1.3
effect on α-glucosidase expression [6]: activates the α-glucosidase expression
